Reference: patent publication US10611789B2, “Crystalline form A of rebaudioside D, and preparation method and application therefor” (ZHUCHENG HAOTIAN PHARM CO., LTD, priority 2015, dated 2020)
In brackets after ≈: the same amount, converted by molar mass.

Columns and labels:
Type in all cases: physicochemical
[1] = water solubility of crystal form A
[2] = HPLC chemical stability on storage; settings: after six months of storage (25° C., relative humidity 60%)
Method: HPLC analysis: a 1260 infinity liquid chromatograph from American Agilent Technologies was used for determination. Preparation method for the sample solution: 25-50 mg of the Rebaudioside D sample was accurately weighed, and placed in a 25 ml of volumetric flask, and then a solution of water-acetonitrile (7:3, v/v) was added for dissolution and the volume was set to the scale. The fomulation method for sodium phosphate buffer (specification: 10 mmol/L, pH: 2.6): 2.76 g of sodium dihydrogen phosphate was dissolved in 2 L of water, phosphoric acid was added and the pH was adjusted to 2.6. Chromatographic column: Phenomenex's Luna 5μ C18 (2) 100 A column. Injection volume: 5 μl. Flow rate: 1.0 mL/min. Column temperature: 40° C. Detector: 210 nm of UV detection. Mobile phase: acetonitrile and sodium phosphate buffer (specification: 10 mmol/L, pH: 2.6) at a ratio of 32:68.

[3] = XRPD crystal form stability on storage
Method: XRPD analysis: a Bruker D8 advance diffractometer from German Brook Instruments Co. LTD was used for detection at room temperature, using Cu-Kα ray (λ=1.5418 Å) with 2θ angle scanning from 3° to 40° at a scanning speed of 0.2°/second.
The crystal form A of Rebaudioside D prepared in the above examples was subjected to XRPD analysis under the conditions of 25° C. and RH≤30%. The analysis results are shown in FIG. 6, and it can be seen from FIG. 6 that the crystal form thereof is unchanged and has a good stability.
The crystal form A of Rebaudioside D prepared in the above examples was stored for 6 months under the conditions of 25° C. and RH≤60%. The analysis results are shown in FIG. 7, and it can be seen from FIG. 7 that the crystal form thereof is unchanged and has a good stability.

[4] = dynamic vapor sorption (DVS) analysis; settings: 25° C.
Method: DVS analysis: a DVS Intrinsic Dynamic Moisture Adsorption Device of UK SMS Instrument Company was used for detection. The measuring temperature: 25° C.; the relative humidity: 0-95%.

C=C1C[C@@]23CCC4[C@@](C)(CCC[C@@]4(C)C(=O)O[C@@H]4OC(CO)[C@@H](O)C(O)C4OC4OC(CO)[C@@H](O)C(O)C4O)C2CC[C@]1(OC1OC(CO)C(O)C(OC2OC(CO)C(O)C(O)C2O)C1OC1OC(CO)C(O)C(O)C1O)C3 (stereo partly drawn) [crystal form A of Rebaudioside D, Rebaudioside D]
solubility [1]: ~600 µg/mL (≈ 531 µM) | variation of HPLC purity compared with the raw material [2]: less than 0.5% | crystal form by XRPD ([3]; 25° C. and RH≤30%): unchanged | crystal form by XRPD after storage ([3]; stored for 6 months, 25° C. and RH≤60%): unchanged | mass percentage of absorbed moisture ([4]; within a relative humidity of 0-40%): 0-3.4% | mass percentage of absorbed moisture ([4]; within a relative humidity of 40-100%): 3.4-7.1%
